Values belong to the compound of their own block, whether it stands above or below them.
Key:
[1] = Hygroscopicity of solid DOPC; format: physicochemical
From the text: In addition, waxy DOPC can only be comminuted with difficulty and, like lyophilised DOPC, can only be weighed out with difficulty. This makes handling of this compound much more difficult.

[2] = stored under a protective gas at −20° C.; cited from earlier work
[3] = Storage stability of crystalline DOPC, residual content by HPLC; format: physicochemical; details: exclusion of air
Experimental: In order to determine the stability of crystalline DOPC, the substances are stored together with comparative samples at 25° C. and 60% relative humidity and at 40° C. and 75% relative humidity with exclusion of air. The residual content of DOPC is measured at periodic intervals and indicated compared with the initial value. Purity and content of DOPC are determined by HPLC. For the type I crystal modification, the following values were found: […]

[4] = 25° C./60% relative humidity, storage time 0 months
[5] = 25° C./60% relative humidity, storage time 3 months
[6] = 25° C./60% relative humidity, storage time 6 months
[7] = 25° C./60% relative humidity, storage time 9 months
[8] = 25° C./60% relative humidity, storage time 12 months
[9] = 25° C./60% relative humidity, storage time 18 months
[10] = 40° C./75% relative humidity, storage time 0 months
[11] = 40° C./75% relative humidity, storage time 3 months
[12] = 40° C./75% relative humidity, storage time 6 months
[13] = 40° C./75% relative humidity, storage time 9 months
[14] = 40° C./75% relative humidity, storage time 12 months

hygroscopicity [1]: extremely hygroscopic
Structure (SMILES): CCCCCCCC/C=C\CCCCCCCC(=O)OC[C@H](COP(=O)([O-])OCC[N+](C)(C)C)OC(=O)CCCCCCC/C=C\CCCCCCCC [amorphous DOPC, reference compound]

hygroscopicity [1]: improved hygroscopicity
Structure (SMILES): CCCCCCCC/C=C\CCCCCCCC(=O)OC[C@H](COP(=O)([O-])OCC[N+](C)(C)C)OC(=O)CCCCCCC/C=C\CCCCCCCC [Crystalline DOPC]

Structure (SMILES): CCCCCCCC/C=C\CCCCCCCC(=O)OC[C@H](COP(=O)([O-])OCC[N+](C)(C)C)OC(=O)CCCCCCC/C=C\CCCCCCCC [lyophilised DOPC]
guaranteed shelf life [2]: about 12 months

purity of DOPC (HPLC) compared with the initial value [3, 4]: 100.0 Area-% | residual content of DOPC compared with the initial value [3, 4]: 100.0 % by weight | purity of DOPC (HPLC) compared with the initial value [3, 5]: 100.0 Area-% | residual content of DOPC compared with the initial value [3, 5]: 100.9 % by weight | purity of DOPC (HPLC) compared with the initial value [3, 6]: 100.0 Area-% | residual content of DOPC compared with the initial value [3, 6]: 99.3 % by weight | purity of DOPC (HPLC) compared with the initial value [3, 7]: 100.0 Area-% | residual content of DOPC compared with the initial value [3, 7]: 100.8 % by weight | purity of DOPC (HPLC) compared with the initial value [3, 8]: 99.7 Area-% | residual content of DOPC compared with the initial value [3, 8]: 100.4 % by weight | purity of DOPC (HPLC) compared with the initial value [3, 9]: 99.8 Area-% | residual content of DOPC compared with the initial value [3, 9]: 100.6 % by weight | purity of DOPC (HPLC) compared with the initial value [3, 10]: 100.0 Area-% | residual content of DOPC compared with the initial value [3, 10]: 100.0 % by weight | purity of DOPC (HPLC) compared with the initial value [3, 11]: 99.9 Area-% | residual content of DOPC compared with the initial value [3, 11]: 100.0 % by weight | purity of DOPC (HPLC) compared with the initial value [3, 12]: 99.8 Area-% | residual content of DOPC compared with the initial value [3, 12]: 98.4 % by weight | purity of DOPC (HPLC) compared with the initial value [3, 13]: 99.8 Area-% | residual content of DOPC compared with the initial value [3, 13]: 99.8 % by weight | purity of DOPC (HPLC) compared with the initial value [3, 14]: 99.7 Area-% | residual content of DOPC compared with the initial value [3, 14]: 99.5 % by weight
Structure (SMILES): CCCCCCCC/C=C\CCCCCCCC(=O)OC[C@H](COP(=O)([O-])OCC[N+](C)(C)C)OC(=O)CCCCCCC/C=C\CCCCCCCC [type I crystalline (R)-DOPC, 1,2-dioleoyl-sn-glycero-3-phosphocholine]

From patent US8513446B2, “Stable crystal modifications of DOPC” (Merck Patent GmbH, priority 2008, dated 2013)
